Measured values taken from publication PMC9080489, “Synthesis and biological evaluation of 2-aryl-benzimidazole derivatives of dehydroabietic acid as novel tubulin polymerization inhibitors” (RSC Advances, 2018).

Tested on: intracellular microtubule system of SMMC-7721 cells
Assay: Immunofluorescence staining of microtubule network
Assay type: cell-based, human
Details: 24 h (Fig. 4 legend)
Experimental: Since the tubulin polymerization inhibitory effect of compound 6j has been verified, we subsequently performed the immunofluorescent staining assay to observe its effect on the intracellular microtubule system of SMMC-7721 cells.
[…] After being washed with phosphate buffer solution (PBS) and fixed in 4% paraformaldehyde for 15 min, the cells were permeabilized with 0.5% Triton X-100 for 15 min and blocked for 30 min with 10% goat serum. Then, the cells were incubated with mouse anti-tubulin antibody (ZSGB-Bio, China) at 4 °C overnight and incubated with goat anti-mouse IgG/Alexa-Fluor 488 antibody (ZSGB-Bio, China) at room temperature for 1 h. After the nuclei were stained with Hoechst 33258 (Beyotime Biotech., China) in the dark at room temperature for 30 min, the samples were immediately visualized on a Zeiss LSM 570 laser scanning confocal microscope (Carl Zeiss, Germany).

## COC(=O)[C@]1(C)CCC[C@]2(C)c3cc(Br)c4nc(-c5ccc6[nH]ccc6c5)[nH]c4c3CCC12 (some centres unmarked) [Compound 6j, Methyl 2′-(1H-indol-5-yl)-12-bromo-13,14-imidazolyl-deisopropyl-dehydroabietate]
0.5 μM
  effect on the microtubule network: most microtubule networks disappeared
0.1–0.5 μM
  effect on the microtubule network: the meshy microtubule networks shrank around the nuclei in a dose-dependent manner
